In PMC9945865, “Anticancer evaluation of new organometallic ruthenium(II) flavone complexes” (RSC Medicinal Chemistry, 2022):

Tests used:
[1] = system: ovarian cancer cell lines; set-up: method as in doi:10.1021/OM500317B; conditions: ovarian cancer cell lines ref 20; cited from earlier work
[2] = system: cervical, breast, hepatocellular and colorectal cancer cell lines; set-up: method as in PMID 24793593; conditions: hepatocellular and colorectal cancer cell lines ref 19; cited from earlier work
[3] = system: VEGF i-motif DNA; assay: I-motif DNA binding, UV-visible absorbance; set-up: species or system human; conditions: DNA : flavonoid 2 μM : 2 μM, pH 5.5, 25 °C
Description: (§1) I-motifs are four stranded antiparallel cytosine rich DNA sequences capable of forming at telomere and promotor regions of genomic DNA.[41,42] […] Due to the presence of potential i-motif forming sequences in 69% of promoter regions in human oncogenes, they are postulated to play a key role in oncogene expression regulation.[44] VEGF and c-myc i-motif sequences are prevalent in oncogene promotor regions in many cancers including breast cancer and as such their ligands have potential anticancer roles.[45] The natural flavonol, fisetin, is reported to specifically bind to VEGF i-motif DNA and regulate its function by stabilizing its hairpin structure.[31] […] In continuation of our investigation of the effects of Ru metal complexation on the different biological activities of flavonoids, interactions with VEGF and c-myc i-motif DNA were studied using UV-vis spectroscopic techniques. […] However, 2Ru's addition led to a 1 nm hypsochromic shift of VEGF i-motif absorbance maximum from 272 to 271 nm. On the other hand, addition of the 4-oxo flavone (1) and its Ru complex (1Ru) led to minor changes in λmax of both sequences that was hypochromic (5% and 3%) with VEGF and hyperchromic (2% and 5%) in case of c-myc (Fig. 8).
(§2) UV-visible absorbance measurements and DNA UV melting studies were performed on a Cary 300 C (Varian USA) UV-visible spectrophotometer. VEGF and c-myc i-motif DNA (5′-3′ sequences ([…]) and ([…]), respectively) were purchased from Sigma-Aldrich (Gillingham, UK) and used without further purification. Na cacodylate buffer (20 mM, pH 5.5) was used for both i-motifs. DNA concentrations were determined by measuring the absorbance at 260 nm after melting using the molar extinction coefficient supplied by the manufacturer. VEGF and c-myc i-motifs were prepared for experiments by diluting with buffer solution, annealed with or without the flavonoid at 95 °C for 5 min then gently cooled to room temperature. The stock solutions of the test compounds (20 mM) were prepared in 100% sterile DMSO. These stocks were then appropriately diluted with HPLC grade water and DMSO levels were maintained below 0.1% in the test concentrations.
(§3) UV-visible absorbance measurements and UV melting studies of either free i-motifs (VEGF or c-myc), free flavone (1, 1Ru, 2 or 2Ru) or both i-motif DNA and flavone (2 μM: 2 μM) were recorded using 1.0 cm matched quartz cuvettes. First spectra were recorded in the range of 200–500 nm to determine the relevant wavelength range were no peaks were observed above 320 nm. […] UV-visible absorbance was measured at 25 °C while melting curves were collected at a heating rate of 1 °C min^−1 from 20 to 90 °C. Tm was calculated by non-linear fitting of the sigmoidal curve obtained at 295 nm.

[4] = system: c-myc i-motif DNA; assay: I-motif DNA binding, UV-visible absorbance; set-up: species or system human; conditions: DNA : flavonoid 2 μM : 2 μM, pH 5.5, 25 °C
Description: as §1, §2, §3

[5] = system: MCF-7; assay: Wound healing (migration) 24 h scratch assay; assay type: cell-based, human; conditions: MCF-7, any of the tested doses (1, 10, 20 μM)
Experimental: (§4) Malignant cell migration is essential for tumour invasion and metastasis.[1] Thus, the ability of the synthetic flavones (1 and 2) and their Ru(II) metal complexes (1Ru and 2Ru) to inhibit the migration of breast cancer cells (MCF-7 and MDA-MB-231) was assessed by an in vitro 24 h scratch assay. Low, sub-cytotoxic concentrations of 1, 10 and 20 μM were used in this evaluation.
(§5) MCF-7 or MDA-MB-231 cells were seeded in 12-well plates at 2 × 10^5 or 1 × 10^5 cells per mL, respectively, and cultured until 70–80% confluency. Afterwards, they were serum-starved (0% serum) for 24 h to inactivate the cell proliferation. A scratch was performed on the cell monolayers using a 200 μL pipette tip. Cells were then washed twice with PBS and treated with complete medium and one of the synthesized derivatives at 1, 10 or 20 μM. […] Images of the scratches were taken immediately after performing the scratch (t = 0 h) and at 24 h (t = 24 h). The area not covered by the cells was quantified using ImageJ software. % of wound closure was calculated using the following equation:100 × ((Area of scratch at t0 − Area of scratch at t24)/Area of scratch at t0)

[6] = system: MDA-MB-231; assay: Wound healing (migration) 24 h scratch assay; assay type: cell-based, human; conditions: MDA-MB-231, 1, 10, 20 μM, 24 h
Experimental: as §4, §5

[7] = system: VEGF i-motif DNA; assay: I-motif DNA UV melting (thermal stability); assay type: binding, human; conditions: for Tm: VEGF i-motif with flavone at 1 : 1 ratio, 295 nm, free DNA 46 °C; for ΔTm: VEGF i-motif, 1 : 1 ratio, ΔTm = Tm (DNA-flavone) − Tm (DNA)
Description: (§6) The effect of this set of flavones on VEGF and c-myc was further evaluated via thermal stability measurements. Stabilizing/destabilizing the promotor i-motif structures is often reported to regulate expression of the corresponding genes, which for VEGF and c-myc could have detrimental effects on cancer growth and propagation.[48] As observed in Fig. 9, effects of the test flavones on the thermal stability of the VEGF and c-myc i-motif sequences were generally marginal and in agreement with λmax chromophoric shifts. […] Compound 1 destabilized VEGF i-motif in contrast to stabilizing the c-myc one. This mirrored the trend of a higher chromophoric shift observed for flavone 1 with VEGF i-motif sequence that also differed in pattern (hypochromic) from the shift witnessed with the c-myc sequence (hyperchromic). These findings could indicate higher selectivity of the 4-oxo derivative (1) towards VEGF i-motif based on an intercalative binding mode especially that hypochromic shifts are reported with DNA intercalation.[49,50] […] In this regard, the highest i-motif activity seen for the parent flavonoids was switched from VEGF to c-myc with compound 1 and vice versa with compound 2 upon Ru chelation. This emphasizes the key role of the interplay between the substitution at position 4 and metal complexation on the interaction with biological targets.
as §2, §3

[8] = system: c-myc i-motif DNA; assay: I-motif DNA UV melting (thermal stability); assay type: binding, human; conditions: for Tm: c-myc i-motif with flavone at 1 : 1 ratio, 295 nm, free DNA 45 °C; for ΔTm: c-myc i-motif, 1 : 1 ratio, ΔTm = Tm (DNA-flavone) − Tm (DNA)
Description: as §6, §2, §3

[9] = system: MCF-7; assay: Cell viability, 72 h MTT assay; assay type: cell-based, human; conditions: Homo sapiens, MCF7; MCF-7, 72 h MTT, mean ± SEM, n = 3
Experimental: (§7) The unique chemical features and coordination geometries of metal ions can add several additional binding interactions that can potentially enhance their anticancer properties for example by allowing intercalation and exploitation of their redox potential.[24] […] In that context, coordination of derivative (2) with a Ru(II) metal ligand is a promising approach to further improve its antiproliferative activity.
(§8) MCF-7 and MDA-MB-231 cells were seeded at a density of 4 × 10^4 and 2 × 10^4 cells per mL, respectively, into 96 well plates and incubated to allow the attachment for 24 h. After 24 h, the cells were treated with one of the synthesised derivatives at range of concentrations (0–100 μM) for 67 h. After 67 h, 20 μL of MTT (5 mg mL^−1) solution in PBS was added to each well and the cells were incubated for 5 h. The purple crystals formed were dissolved in 100 μL of DMSO and the plates were read at 560 nm using a SPECTRA max UV spectrometer (Bio-Rad). The data represented are the mean of the three individual experiments.

[10] = system: MDA-MB-231; assay: Cell viability, 72 h MTT assay; assay type: cell-based, human; conditions: Homo sapiens; MDA-MB-231, 72 h MTT, mean ± SEM, n = 3
Experimental: as §7, §8

[11] = Cytotoxicity on HUVECs, trypan blue exclusion assay; assay type: cell-based, human; conditions: human, HUVEC cells, % of control, p > 0.05 vs control, read-out: Cell viability of HUVECs
Experimental: The biocompatibility of flavones (1 and 2)[30] alongside their ruthenium(II) metal complexes (1Ru and 2Ru) with HUVEC cells was established using the trypan blue exclusion assay. A concentration four times higher (i.e. 40 μM) than the highest concentration used for the tube formation antiangiogenic evaluation study (i.e. 10 μM) was selected for this cytotoxic assay.
Cytotoxic activity of treatments on HUVECs using trypan blue exclusion assay.[55] HUVECs were seeded in 96 well plates at 1 × 10^5 cells per mL and cultured for 24 h. Cells were then treated with either luteolin, the synthesised derivatives at 40 μM or culture medium (control) for 24 h. After 24 h, solutions were removed and cells washed with 100 μL PBS followed by the addition of 50 μL trypsin–EDTA and incubation for 5 min to detach the cells. 50 μL of EGM-2 media was added to the wells. 50 μL aliquots of the cell suspension were mixed with equal volume of trypan blue (TB) 0.2% v/v (prepared from 0.4% TB diluted with PBS) then the cells were counted using a haemocytometer. Number of viable and dead cells were counted manually and % cell viability of each treatment was expressed as % of control using the equation:% Cell Viability = (Cell viability in treatment/Cell viability in control) × 100where cell viability was calculated as follows:Cell Viability = Number of viable cells/Total number of cells(viable and dead).

[12] = system: HUVECs; assay: Matrigel endothelial cell tube formation assay (VEGF-mediated); assay type: cell-based, human; conditions: compared to the positive control (10 ng mL^−1 VEGF), 12 h
Experimental: In our recent study,[30] the 4′-chlorophenylflavone derivatives 1 and 2 have shown promising antiangiogenic activities in vitro. Herein, the effect of complexation with a ruthenium(II) metal ligand on the antiangiogenic activity of 1 and 2 was evaluated using the Matrigel tube formation assay that assesses many of the main steps involved in the process of angiogenesis. Inhibition of VEGF-mediated tube formation by the tested substrates was observed after 12 h of treatment on HUVECs at 1 μM and 10 μM concentrations. Luteolin is a natural flavone well known for its high antiangiogenic activity both in vitro and in vivo[34] and as such was used in this study as a reference standard. In accordance with reported data, luteolin inhibited the measured elements of tube formation by 30% compared to the positive control.[34,35] […] The ability of Ru(II) organometallic derivatives to target tumour metastasis has been widely reported both in vitro and in vivo.[3,6,9,36] Thus, based on the preliminary antiangiogenic trends observed for our target Ru(II) complexes (1Ru and 2Ru) and their parent flavones (1 and 2), we further investigated their antiproliferative and antimetastatic potential on the estrogen receptor positive breast cancer cell line (MCF-7) and the more aggressive triple negative cell line (MDA-MB-231).
HUVECs were cultured until confluency and then serum starved (0.1% serum) for 24 h. The tube formation assay followed the reported assay.[56] Briefly, 96 well plates were coated with 50 μL of Corning™ Matrigel™ GFR Membrane Matrix at 4 °C and incubated at 37 °C for 1–2 h to solidify. Serum starved HUVECs were seeded on the solidified Matrigel at 3 × 10^5 cells per mL and treated with medium containing VEGF (10 ng mL^−1) and either luteolin or one of the synthesised derivatives (at 1 μM or 10 μM). Plates were incubated for 12 h and photos covering the whole well area were taken using 4× magnification power of an inverted light microscope. Number of junctions, number and length of segments and master segments were quantified from the taken Images via the Angiogenesis Analyzer plugin[57] in ImageJ software.[58] […] Data was represented as a ratio to the positive control (VEGF enriched).

SMILES	IC50 [1] [µM]	IC50 [2] [µM]	hypochromic change at λmax [3] [%]	hyperchromic shift (increase) at absorbance maximum λmax [4] [%]	antimigratory activity [5]	effect on the migration [6]	Tm [7] [°C]	ΔTm [7] [°C]	Tm [8] [°C]	ΔTm [8] [°C]	IC50 [9] [µM]	IC50 [10] [µM]	viability at 24 h, 40 µM [11] [%]	hyperchromic shift (increase) at absorbance maximum λmax [3] [%]	melting point [°C]	inhibition of the measured elements of tube formation [12] [%]
N.N.[Cl][Pt][Cl] [cisplatin]	1.5 to 25	13 to 52														
O=c1cc(-c2ccc(Cl)cc2)oc2cc(O)cc(O)c12 [compound 1, 2-(4-chlorophenyl)-5,7-dihydroxy-4H-chromen-4-one]			5	2	no observed effects	neither showed any effect	44	−2	46	1	> 100	> 100	~100			
Oc1cc(O)c2c(=S)cc(-c3ccc(Cl)cc3)oc2c1 [compound 2, 2-(4-chlorophenyl)-5,7-dihydroxy-4H-chromene-4-thione]				18			47	1	47	2	1.2 ± 0.8	43.1 ± 1.29	~100	16	247.7 to 248	
O=c1cc(-c2ccc(O)c(O)c2)oc2cc(O)cc(O)c12 [luteolin, Luteolin, reference compound]																30
